This is an account of results in PubChem BioAssay (NCI).

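Step 1: Grow cells in 96-well plates. Step 2: Expose to compound for 48 hours at 5 concentrations. Step 3: Interpolate endpoints linearly; if unreached, use highest concentration. GI50 = concentration required for 50% inhibition of growth. TGI: total growth inhibition.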

The subject of one experiment is DMS 114 small cell lung. Nature of the experiment: inhibition of tumour cell growth, NCI panel, 48 h.
The compound `C=C1C(=O)OC2/C=C(\C(=O)O)CC/C=C(\C)CC(OC(=O)/C=C(\C)CC)C12` (stereo not drawn) registered a TGI of 30.2 µM.

Turning to `O=C(c1ccccc1)c1ccc2n[se]nc2c1`, the TGI was found to be 60 µM.

In turn, `CCC1C[N+]23CCc4c([nH]c5ccccc45)C2CC1CC3` (stereo not drawn) had a TGI of over 100 µM.

For `CC1=C2C(O)C(C(C)C(=O)N(C)C)CCC2(C)C=CC1=O` (stereo not drawn), the TGI was over 100 µM.

Turning to `Cc1ccc(S(=O)(=O)Nc2cccc3c(=O)[nH]cnc23)cc1`, the TGI was over 100 µM.

Compound `O=C1C=C(C2OC(CO)C(O)C2O)C(=O)N1` (stereo not drawn) showed a TGI of over 100 µM.

A further experiment concerns HCC-2998 colon. The experiment is described as follows: inhibition of tumour cell growth, NCI panel, 48 h.
Turning to `C=C1C(=O)OC2/C=C(\C(=O)O)CC/C=C(\C)CC(OC(=O)/C=C(\C)CC)C12` (stereo not drawn), the TGI was found to be 33.8 µM.

For `O=C(c1ccccc1)c1ccc2n[se]nc2c1`, the TGI came out at 73.7 µM.

Consider `CC(=O)C(C(c1ccccc1)N1CCOCC1)N1CCOCC1` (stereo not drawn), for which the TGI is 35.8 µM.

Turning to `CCOP(=Nc1ccc(N(C)C)cc1)(OCC)OCC`, the TGI was over 100 µM.

In the case of `CCCC(C)c1ccc(OCCCCCCN2CCNCC2)cc1` (stereo not drawn), the GI50 is 1.84 µM and the TGI came out at 3.28 µM.

In turn, `CCC1C[N+]23CCc4c([nH]c5ccccc45)C2CC1CC3` (stereo not drawn) displayed a TGI of over 100 µM.

In the case of `CC1=C2C(O)C(C(C)C(=O)N(C)C)CCC2(C)C=CC1=O` (stereo not drawn), the TGI is over 100 µM.

`Cc1ccc(S(=O)(=O)Nc2cccc3c(=O)[nH]cnc23)cc1` showed a TGI of over 100 µM.

Compound `O=C1C=C(C2OC(CO)C(O)C2O)C(=O)N1` (stereo not drawn) gave a TGI of over 100 µM.

The test system of the next experiment is HCT-116 colon. Nature of the experiment: inhibition of tumour cell growth, NCI panel, 48 h.
Compound `C=C1C(=O)OC2/C=C(\C(=O)O)CC/C=C(\C)CC(OC(=O)/C=C(\C)CC)C12` (stereo not drawn) displayed a TGI of 25.6 µM.

As to `CC(=O)C(C(c1ccccc1)N1CCOCC1)N1CCOCC1` (stereo not drawn), the TGI was over 100 µM.

`CCOP(=Nc1ccc(N(C)C)cc1)(OCC)OCC` came in with a TGI of over 100 µM.

For `CCC1C[N+]23CCc4c([nH]c5ccccc45)C2CC1CC3` (stereo not drawn), the TGI was over 100 µM.

In turn, `CC1=C2C(O)C(C(C)C(=O)N(C)C)CCC2(C)C=CC1=O` (stereo not drawn) returned a TGI of over 100 µM.

As for `Cc1ccc(S(=O)(=O)Nc2cccc3c(=O)[nH]cnc23)cc1`, the TGI is over 100 µM.

As to `O=C1C=C(C2OC(CO)C(O)C2O)C(=O)N1` (stereo not drawn), the TGI was over 100 µM.

The subject of another experiment is KM12 colon. Nature of the experiment: inhibition of tumour cell growth, NCI panel, 48 h.
In turn, `C=C1C(=O)OC2/C=C(\C(=O)O)CC/C=C(\C)CC(OC(=O)/C=C(\C)CC)C12` (stereo not drawn) had a TGI of 27.9 µM.

For `O=C(c1ccccc1)c1ccc2n[se]nc2c1`, the TGI was over 100 µM.

As for `CC(=O)C(C(c1ccccc1)N1CCOCC1)N1CCOCC1` (stereo not drawn), the TGI is over 100 µM.

In turn, `CCOP(=Nc1ccc(N(C)C)cc1)(OCC)OCC` gave a TGI of over 100 µM.

For `CCCC(C)c1ccc(OCCCCCCN2CCNCC2)cc1` (stereo not drawn), the GI50 is 1.87 µM and the TGI amounted to 3.85 µM.

Compound `CCC1C[N+]23CCc4c([nH]c5ccccc45)C2CC1CC3` (stereo not drawn) returned a TGI of over 100 µM.

For `CC1=C2C(O)C(C(C)C(=O)N(C)C)CCC2(C)C=CC1=O` (stereo not drawn), the TGI is over 100 µM.

The compound `Cc1ccc(S(=O)(=O)Nc2cccc3c(=O)[nH]cnc23)cc1` returned a TGI of over 100 µM.

`O=C1C=C(C2OC(CO)C(O)C2O)C(=O)N1` (stereo not drawn): the TGI is over 100 µM.

The subject of another experiment is NCI-H226 lung. Nature of the experiment: inhibition of tumour cell growth, NCI panel, 48 h.
The compound `C=C1C(=O)OC2/C=C(\C(=O)O)CC/C=C(\C)CC(OC(=O)/C=C(\C)CC)C12` (stereo not drawn) registered a TGI of 32.9 µM.

For the compound `CC(=O)C(C(c1ccccc1)N1CCOCC1)N1CCOCC1` (stereo not drawn), the TGI was over 100 µM.

In the case of `CCCC(C)c1ccc(OCCCCCCN2CCNCC2)cc1` (stereo not drawn), the GI50 was 9.26 µM and the TGI is 35.8 µM.

In turn, `CCC1C[N+]23CCc4c([nH]c5ccccc45)C2CC1CC3` (stereo not drawn) had a TGI of over 100 µM.

Consider `CC1=C2C(O)C(C(C)C(=O)N(C)C)CCC2(C)C=CC1=O` (stereo not drawn), for which the TGI was over 100 µM.

For the compound `Cc1ccc(S(=O)(=O)Nc2cccc3c(=O)[nH]cnc23)cc1`, the TGI is over 100 µM.

Take `O=C1C=C(C2OC(CO)C(O)C2O)C(=O)N1` (stereo not drawn): the TGI was over 100 µM.

Another experiment relates to RPMI-8226 leukemia. Nature of the experiment: inhibition of tumour cell growth, NCI panel, 48 h.
Turning to `C=C1C(=O)OC2/C=C(\C(=O)O)CC/C=C(\C)CC(OC(=O)/C=C(\C)CC)C12` (stereo not drawn), the TGI was over 100 µM.

Consider `O=C(c1ccccc1)c1ccc2n[se]nc2c1`, for which the TGI is over 100 µM.

As to `CC(=O)C(C(c1ccccc1)N1CCOCC1)N1CCOCC1` (stereo not drawn), the TGI is over 100 µM.

In turn, `CCOP(=Nc1ccc(N(C)C)cc1)(OCC)OCC` came in with a TGI of over 100 µM.

Compound `CCC1C[N+]23CCc4c([nH]c5ccccc45)C2CC1CC3` (stereo not drawn) showed a TGI of over 100 µM.

Consider `CC1=C2C(O)C(C(C)C(=O)N(C)C)CCC2(C)C=CC1=O` (stereo not drawn), for which the TGI was over 100 µM.

As to `Cc1ccc(S(=O)(=O)Nc2cccc3c(=O)[nH]cnc23)cc1`, the TGI came out at 97.7 µM.

For `O=C1C=C(C2OC(CO)C(O)C2O)C(=O)N1` (stereo not drawn), the TGI was over 87.8 µM.

A further experiment relates to SF-268 CNS. The experiment is described as follows: inhibition of tumour cell growth, NCI panel, 48 h.
`C=C1C(=O)OC2/C=C(\C(=O)O)CC/C=C(\C)CC(OC(=O)/C=C(\C)CC)C12` (stereo not drawn): the TGI came out at 30.6 µM.

Compound `O=C(c1ccccc1)c1ccc2n[se]nc2c1` came in with a TGI of over 100 µM.

In turn, `CC(=O)C(C(c1ccccc1)N1CCOCC1)N1CCOCC1` (stereo not drawn) came in with a TGI of over 100 µM.

Compound `CCOP(=Nc1ccc(N(C)C)cc1)(OCC)OCC` had a TGI of over 100 µM.
